The test system of data set [1] is Mycobacterium tuberculosis. The data set can be described thus: Antimycobacterial activity against Mycobacterium tuberculosis H37Rv. The format is functional.
Data set [2] is described as follows: Selectivity index, ratio of cytotoxic concentration for HEK293 cells to MIC for Mycobacterium tuberculosis H37Rv ATCC 27294. The format is toxicity. The settings on record: human, read-out: Selectivity Index.
Data set [3] has as its system Mycobacterium tuberculosis. The data set can be described thus: Antimycobacterial activity against Mycobacterium tuberculosis H37Rv ATCC 27294 after 5 days by MABA. The format is functional. The note with it: H37Rv ATCC 27294, 120 h. In general terms: Resazurin is reduced to fluorescent resorufin, in cell work by metabolically active cells.
Data set [4] relates to Mycobacterium tuberculosis. The data set can be described thus: Potency index, ratio of ethambutol MIC to compound MIC for Mycobacterium tuberculosis H37Rv ATCC 27294. The data set is classed as functional.
Data set [5] concerns Mycobacterium tuberculosis. The data set can be described thus: Potency index, ratio of ethambutol MIC to compound MIC for Mycobacterium tuberculosis H37Rv. The data set is classed as functional.
The subject of data set [6] is Mycobacterium tuberculosis. The data set can be described thus: Antimycobacterial activity against Mycobacterium tuberculosis MC2 7000. The format is functional.
Data set [7] has as its system Mycobacterium tuberculosis. The data set can be described thus: Antimycobacterial activity against Mycobacterium tuberculosis MC2 6230. The data set is classed as functional.
The test system of data set [8] is Mycobacterium tuberculosis. The data set can be described thus: Potency index, ratio of linezolid MIC to compound MIC for Mycobacterium tuberculosis H37Rv. The format is functional.
In data set [9] the target is T1, Phosphotyrosine protein phosphatase (Mycobacterium tuberculosis, UniProt A0A045ISB3).
T1 sequence (A0A045ISB3 whole entry): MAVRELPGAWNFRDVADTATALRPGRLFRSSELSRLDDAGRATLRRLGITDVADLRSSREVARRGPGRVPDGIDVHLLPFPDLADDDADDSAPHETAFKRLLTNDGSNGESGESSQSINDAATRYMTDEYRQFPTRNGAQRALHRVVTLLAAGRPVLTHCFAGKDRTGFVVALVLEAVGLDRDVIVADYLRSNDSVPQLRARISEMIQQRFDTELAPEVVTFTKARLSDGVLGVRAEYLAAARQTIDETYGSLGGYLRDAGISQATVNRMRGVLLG
The data set can be described thus: Inhibition of Mycobacterium tuberculosis PTPB.

For data set [10], the system named is Mycobacterium tuberculosis. The data set can be described thus: Antimycobacterial activity against Mycobacterium tuberculosis H37Rv ATCC 27294 by agar dilution method. The data set is classed as functional. Background: Agar dilution tests growth on a series of plates holding different concentrations.
The target in another data set is T2, Pantothenate synthetase (Mycobacterium tuberculosis, UniProt P9WIL5).
T2 sequence (P9WIL5 whole entry): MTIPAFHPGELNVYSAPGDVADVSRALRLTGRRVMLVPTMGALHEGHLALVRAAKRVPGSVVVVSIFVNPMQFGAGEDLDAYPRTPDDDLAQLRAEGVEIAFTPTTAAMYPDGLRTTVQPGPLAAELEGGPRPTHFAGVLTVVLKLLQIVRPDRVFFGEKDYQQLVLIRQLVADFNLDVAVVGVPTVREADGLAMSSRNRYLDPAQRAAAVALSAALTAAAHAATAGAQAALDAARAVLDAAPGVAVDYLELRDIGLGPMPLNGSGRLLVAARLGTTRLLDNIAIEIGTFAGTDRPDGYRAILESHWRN
The data set can be described thus: Inhibition of Mycobacterium tuberculosis pantothenate synthetase.

The mark [11] stands for this setting: Mycobacterium tuberculosis, H37Rv.

In brackets after ≈: the same amount, converted by molar mass. Bounds are passed on as bounds.

As a reminder, the MIC is the least concentration at which growth counts as inhibited. A high value points to a less susceptible organism. What is called MIC99 is the lowest concentration that inhibits either 99% of growth or 99% of the strains tested, depending on the study. Lower therefore signals greater potency. The term IC50 denotes the point on the concentration scale where inhibition reaches its midpoint. Lower therefore signals inhibition by little substance.

In turn, `Clc1cccc(Cl)c1-c1nnc2sc(-c3cccnc3)nn12` yielded an MIC in data set [1] (setting [11]) of 25 µg/mL (≈ 71.8 µM).

`COc1ccc(-c2nnc(-c3cccnc3)n2Nc2nc3c(Cl)cccc3s2)cc1`: the MIC99 in data set [1] (setting [11]) was found to be 25 µg/mL (≈ 57.5 µM).

With `O=C(N/N=C1/C(=O)N(Cc2ccc(Cl)cc2)c2ccccc21)c1ccc(-n2cc(-c3ccccc3)nn2)cc1O`, the selectivity ratio in data set [2] was over 128. In addition, it took 0.39 µg/mL (≈ 0.71 µM) to inhibit growth in data set [3] (MIC). The Ratio in data set [4] is 8.

On to `CCCCCc1ccc(-c2cn(CC(O)COc3ccc4c(c3)OC3(CCCCC3)CC4=O)nn2)cc1` (stereo not given), for which it took 0.78 µg/mL (≈ 1.55 µM) to inhibit growth in data set [1] (setting [11]) (MIC). Also, the Ratio in data set [5] stood at 2.

Consider `NNC(=O)c1ccncc1` [ISONIAZID], for which the MIC in data set [6] is 0.12 to 144 µM; in data set [7], 0.12 to 144 µM; in data set [3], 0.06 µg/mL (≈ 0.438 µM); in data set [1] (setting [11]), 0.075 µg/mL (≈ 0.547 µM).

For the molecule `O=C1CC2CN(c3ccc(N4C[C@H](Cn5ccnn5)OC4=O)cc3F)CC2C1` (stereo not given in full), it took 0.5 µg/mL (≈ 1.3 µM) to inhibit growth in data set [1] (setting [11]) (MIC). Besides, the Ratio in data set [8] is recorded as 2.

Take `CC[C@@H](CO)NCCN[C@@H](CC)CO` [ETHAMBUTOL]: the MIC in data set [3] came out at 3.13 µg/mL (≈ 15.3 µM); in data set [1] (setting [11]), 1.56 µg/mL (≈ 7.64 µM).

With `O=C(CCCCCCn1cc(COc2ccc(-c3cc(C(=O)O)no3)c(C3CCCCC3)c2)nn1)Nc1ccc2cc3ccccc3cc2c1`, the IC50 in data set [9] came to 0.17 µM.

Consider `CC1=C(C(=O)O)N2C(=O)[C@@H](NC(=O)[C@H](N)c3ccccc3)[C@H]2SC1` [CEPHALEXIN ANHYDROUS], for which the MIC in data set [6] and in data set [7] was 0.12 to 144 µM each time.

`c1cncc(-c2nn3c(COc4cnccn4)nnc3s2)c1` had an MIC in data set [1] (setting [11]) of 0.4 µg/mL (≈ 1.28 µM).

As to `CCc1cc(C(N)=S)ccn1` [ETHIONAMIDE], the MIC in [6] and in data set [7] was 0.12 to 144 µM each time.

`CO[C@H]1/C=C/O[C@@]2(C)Oc3c(C)c(O)c4c(O)c(c(/C=N/N5CCN(C)CC5)c(O)c4c3C2=O)NC(=O)/C(C)=C\C=C\[C@H](C)[C@H](O)[C@@H](C)[C@@H](O)[C@@H](C)[C@H](OC(C)=O)[C@@H]1C` [RIFAMPIN]: the MIC in [6] is 0.12 to 144 µM; in [7] it was 0.12 to 144 µM; in data set [3], 0.39 µg/mL (≈ 0.474 µM); in data set [1] (setting [11]), 0.043 to 0.5 µg/mL (≈ 0.0523 to 0.608 µM). In addition, the MIC98 in [1] was 40 µg/mL (≈ 48.6 µM).

In data set [1] (setting [11]), `NC(=O)c1cnccn1` [PYRAZINAMIDE] returned an MIC of 100 µg/mL (≈ 812 µM).

In turn, `CC(=O)NC[C@H]1CN(c2ccc(N3CCOCC3)c(F)c2)C(=O)O1` [LINEZOLID] yielded an MIC in data set [1] (setting [11]) of 1 µg/mL (≈ 2.96 µM).

Molecule `COc1ccc(-n2cc(Cn3nc(-c4ccccc4)c4c3CCN(C(=O)Nc3ccccc3)C4)nn2)cc1` registered an MIC in data set [10] of 24.7 µM (≈ 12.5 µg/mL). This molecule gave an IC50 at Pantothenate synthetase of 1.01 µM.

These data come from ChEMBL document CHEMBL4190261, “Triazole derivatives and their anti-tubercular activity” (Eur J Med Chem, 2017).
